# Experimental data taken from patent US10806121B2, “Animal litter containing a pheromone composition” (Sergeant's Pet Care Products, LLC, priority 2014, dated 2020).
# Experiments:
# cats [1] = test: Study 1: cat litter preference, pheromone-treated litter versus control litter; assay type: in vivo
# Protocol: In Study 1, four different treatments were tested: Androstenone (ANDRO); cat urinary pheromone, 3-mercapto-3-methyl-1-butanol (CAT); rabbit pheromone, 2-methylbut-2-enal (RP); and both the cat urinary pheromone and the rabbit pheromone (CAT+RP). 40 individual cats were used in this study to assess their preference to or aversion from a control litter versus a litter under one of the four treatments. Each treatment was tested with 10 cats. Litter was divided into 3 lb aliquots, and each aliquot was either used as a control or was mixed with a pheromone (or a pheromone combination) to be tested at a level of 10 μg/3-lb (or 7.3 μg/kg).
# On Day 0, each cat was placed into an assigned chamber randomly placed with two litter boxes, one control and one treated. Each of the two litter boxes was weighed and the weight was recorded. The camera in the chamber was properly aligned to give a full view of the chamber and started taping on Day 0. On Day 1, 24 hours after the start of taping on Day 0, each of the two litter boxes in the chamber was weighed and the weight was recorded. On Day 2, 48 hours after the start of taping on Day 0, each of the two litter boxes in the chamber was again weighed. Litter can be disposed of after weighing on Day 2, and the camera was then turned off. The weights of the litter boxes over the 48 hours were used to determine whether the litter was used or not, and at which preference level.
# The data were expressed as both a percentage preference (% of the cats using the treated litter in each treatment group) and by the weight of the litter (the litter gets heavier as it is soiled). It was expected that if the added pheromone had no effect on litter preference, 50% of the cats would use the treated litter and 50% would use the control litter. […] Further, the weight difference between a control litter or litter under treatment was used to show the relative strength of the effect of a particular treatment on cat's litter use behavior. During the study, some cats (N=3; 2 in CAT+RP and 1 in RP) spilled their litter and their data were unreliable and were not included.
# cats [2] = test: Example 6: animal litter composition with molded particles for use with cats; assay type: in vivo; conditions: animal litter composition comprising about 0.0004% to about 0.0006% (w/w) 2-methylbut-2-enal; most evident in the first 6-8 hours
# Text: An animal litter composition comprising a pheromone composition can be prepared by first forming molded particles from a shaped polymeric matrix prepared in accordance with Example 4 or 5, wherein the molded particles comprise a pheromone composition comprising 2-methylbut-2-enal. The molded particles can then be combined with, mixed into, or otherwise incorporated into litter material upon use of the litter. An animal litter composition of about 2 lbs. to about 6 lbs. will comprise between about 0.01% and about 15% (w/w) molded particles (the molded particles comprising about 0.02% (w/w) 2-methylbut-2-enal) in order to be effective in alleviating litter dominant behavior and associated aggression and anxiety in cats exposed to the pheromone composition as released from the litter. For example, an animal litter comprising about 2% to about 3% molded particles will result in the litter comprising between about 0.0004% (w/w) and about 0.0006% (w/w) 2-methylbut-2-enal. Accordingly, it will be observed that an animal litter composition comprising about 0.0004% to about 0.0006% (w/w) 2-methylbut-2-enal will elicit a positive behavior modification in cats, which behavior modification can last at least 24 hours, and is most evident in the first 6-8 hours following exposure of the animal to the animal litter composition.
# [3] = treated versus control litter weight after 2 days
compound,measurement,setting,value
"C/C=C(\C)C=O [RP, 2-methylbut-2-enal]",increase of litter attraction,cats [1]; 7 out of 9 cats chose treated litter,more than 3.5 times
same,percentage preference (% of the cats using the treated litter),"cats [1]; litter treated at 10 μg/3-lb (7.3 μg/kg), choice against control litter over 48 hours, 50% = no effect",78%
same,"Litter Type Use, g, TRT (weights of litter after 2 days)","cats [1]; treated litter box, 10 μg/3-lb, SE = 0.023",0.76 g
same,"Relative Difference, %",cats [1]; [3],138%
same,Significantly Different,cats [1]; [3],Yes
same,effect on cats' litter preference,"cats [1]; treated versus control litter, 48 hours",highly preferred over the control litter
same,duration of positive behavior modification in cats,cats [2],at least 24 hours
